# Laboratory results: patent publication US20260286288A1, “REGULATED CELLS EXPRESSING CYTOKINES” (William Marsh Rice University, priority 2023, published 2026)
# Entries after “also recorded” stand apart in the source; their conditions may differ.
# Experiments:
# [1] = tested on: IL2-ks cells (cells expressing IL-2 and an inducible kill switch); experiment: Bright field imaging of IL2-ks cells after AP1903; type: cell-based; settings: 100 nM AP1903, 18 hours after administration
# Text: (§1) Images were acquired at 20× magnification.
# [2] = tested on: IL2-ks cells (cells expressing IL-2 and an inducible kill switch); experiment: IL-2 ELISA of IL2-ks cell supernatant after AP1903; type: cell-based
# Method: FIG. 2 is a graph of mIL-2 concentration (pg/mL) of the two cell populations of FIG. 1, the first population (right) not having been exposed to AP1903 and the second population (left) less than 24 hours after exposure to 100 nM AP1903.
# FIG. 7A and FIG. 7B are graphs of IL-2 concentration (pg/mL) over time of four alginate-encapsulated, cytokine-producing, kill switch-inducible cell populations exposed to 0 nM, 10 nM, 100 nM, and 1000 nM of small molecule kill switch inducer AP1903.
# as §1
# [3] = tested on: Encapsulated IL2-ks cells; experiment: mIL-2 ELISA of capsule supernatant of encapsulated IL2-ks cells after AP1903; type: cell-based; settings: 10 nM, 100 nM or 1000 nM AP1903, alginate-encapsulated cells
# Method: FIG. 3A and FIG. 3B are graphs of mIL-2 concentration (pg/mL) over time of four alginate-encapsulated, cytokine-producing, kill switch-inducible cell populations exposed to 0 nM, 10 nM, 100 nM, and 1000 nM of small molecule kill switch inducer AP1903.
# as §1
# [4] = tested on: encapsulated IL12-ks cells; experiment: AP1903-induced encapsulated cell death of mIL12 ks capsules in mice; type: in vivo
# Text: FIG. 9A is an in vitro assay. […] FIG. 9B is an in vitro assay. […] FIG. 9C is an in vivo assay.
# RPE-mIL12-ks cells [5] = settings: in vitro and in vivo assays of FIGS. 9A-C
# Method: (§2) Images of RPE-mIL 12-ks cells via the microscope 24 hours after 0 nM (left) or 10 nM AP1903 (right) administration. […] Cell viability measured after lysing encapsulated RPE-IL12-ks via cell counter 24 hours post administration (n=3).
# (§3) FIG. 9A is series of two annotated photographs of two populations of cytokine-producing, kill switch-inducible cells, the first population (left) not having been exposed to small molecule kill switch inducer AP1903, and the second population (right) 24 hours after exposure to 10 nM AP1903. FIG. 9B is the administration of different concentrations of CID (AP1903) in mIL 12 ks cells in a 24-well plate for 24 hours. […] FIG. 9C is the validation of AP1903 treatment in inducing encapsulated cell death in mice. The inventors implant 50 mIL12 ks capsules in each mouse and administrate half of the mice with AP1903 right after implantation surgeries. Euthanize all the mice after 24 hours, retrieve capsules and lysis capsules for measuring cell viability.
# RPE-mIL12-ks cells [6] = experiment: cells; settings: 24 h, read-out: cell death
# Method: as §2, §3
# [7] = tested on: encapsulated IL2-ks cells; experiment: Viability of explanted IL2-ks capsules with or without intraperitoneal AP1903
smiles,measurement,setting,value
CC[C@H](C(=O)N1CCCC[C@H]1C(=O)O[C@H](CCc1ccc(OC)c(OC)c1)c1cccc(OCC(=O)NCCNC(=O)COc2cccc([C@@H](CCc3ccc(OC)c(OC)c3)OC(=O)[C@@H]3CCCCN3C(=O)[C@@H](CC)c3cc(OC)c(OC)c(OC)c3)c2)c1)c1cc(OC)c(OC)c(OC)c1 [AP1903],cell death (bright field images),[1],induced cell death
same,IL-2 concentration from cell supernatant,"[2]; 10 nM, 100 nM or 1000 nM AP1903, 3 hours after administration",significant reduction in cytokine production
same,mIL-2 concentration from cell supernatant,"[2]; 100 nM AP1903, 18 hours after administration, n=3 wells",significant reduction in cytokine production; also recorded: decreased mIL-2 production
same,mIL-2 concentration over time from capsule supernatant,[3],IL-2 production was reduced; also recorded: decreased mIL-2 production
same,time for encapsulated IL12-ks cells to respond to AP1903,"[4]; 0.4 mg/mL AP1903, healthy mice, n=3",less than 24 hours
same,cell viability of retrieved capsules,"[4]; AP1903 right after implantation of 50 capsules, 24 hours, compared to control mice",decreased cell viability
same,induction of cell death in RPE-mIL 12-ks cells,RPE-mIL12-ks cells [5],highly effective at inducing cell death
same,cytotoxicity at 0.01 µM,RPE-mIL12-ks cells [6],99%
same,time for encapsulated IL2-ks cells to respond to AP1903,"[7]; 0.4 mg/mL AP1903, healthy mice",less than 16 hours
same,viability at 400 µg/mL,"[7]; Mus musculus, ip, read-out: viability of explanted capsules (live)",< 10%
